Assay results taken from patent US11752188B2, “Compositions and methods for nutritional supplements” (DailyColors Health Inc., priority 2020, dated 2023).
Like-named read-outs stand apart in the source and are kept apart here.

What was measured:
Assay type in all cases: biochemical
recombinant human JAK2 = recombinant human JAK2 (Homo sapiens, UniProt O60674); experiment: JAK2 Kinase-Glo Plus luminescence kinase assay
recombinant human JAK1 = recombinant human JAK1 (Homo sapiens, UniProt P23458); experiment: JAK1 Kinase-Glo Plus luminescence kinase assay
Chain of recombinant human JAK1 (P23458 whole entry): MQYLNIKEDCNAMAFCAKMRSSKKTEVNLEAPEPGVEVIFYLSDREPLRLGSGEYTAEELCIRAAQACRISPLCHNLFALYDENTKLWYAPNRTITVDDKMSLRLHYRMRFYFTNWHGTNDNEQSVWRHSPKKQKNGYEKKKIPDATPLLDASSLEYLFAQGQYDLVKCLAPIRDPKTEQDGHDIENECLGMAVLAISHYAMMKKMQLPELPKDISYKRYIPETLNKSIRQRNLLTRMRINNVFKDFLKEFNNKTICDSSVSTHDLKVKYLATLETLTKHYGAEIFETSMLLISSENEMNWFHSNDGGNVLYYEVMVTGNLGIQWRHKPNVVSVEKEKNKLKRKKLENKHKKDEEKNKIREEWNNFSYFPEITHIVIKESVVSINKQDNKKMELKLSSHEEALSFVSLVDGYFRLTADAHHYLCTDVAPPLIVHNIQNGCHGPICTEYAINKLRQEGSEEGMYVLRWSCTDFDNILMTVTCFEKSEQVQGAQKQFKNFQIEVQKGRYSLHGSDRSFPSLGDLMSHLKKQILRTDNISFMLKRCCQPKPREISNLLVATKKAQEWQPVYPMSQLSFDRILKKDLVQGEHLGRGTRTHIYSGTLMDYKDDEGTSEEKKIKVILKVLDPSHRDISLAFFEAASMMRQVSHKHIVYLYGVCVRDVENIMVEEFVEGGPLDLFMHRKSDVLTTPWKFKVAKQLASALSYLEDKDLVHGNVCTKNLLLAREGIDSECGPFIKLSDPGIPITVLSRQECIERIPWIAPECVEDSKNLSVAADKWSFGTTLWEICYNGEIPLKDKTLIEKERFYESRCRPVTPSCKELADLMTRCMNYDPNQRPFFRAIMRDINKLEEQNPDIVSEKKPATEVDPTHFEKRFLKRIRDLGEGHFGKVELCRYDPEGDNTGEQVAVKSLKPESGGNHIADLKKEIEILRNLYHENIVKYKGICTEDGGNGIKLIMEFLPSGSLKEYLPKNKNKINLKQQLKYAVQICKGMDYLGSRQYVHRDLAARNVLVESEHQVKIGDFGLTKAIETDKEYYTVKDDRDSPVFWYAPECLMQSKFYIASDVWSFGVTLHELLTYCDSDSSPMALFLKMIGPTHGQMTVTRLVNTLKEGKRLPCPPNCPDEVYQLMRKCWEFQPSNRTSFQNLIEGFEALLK

recombinant human JAK3 = target: T1, recombinant human JAK3 (Homo sapiens, UniProt P52333); experiment: JAK3 Kinase-Glo Plus luminescence kinase assay
T1 sequence (P52333 1-1124): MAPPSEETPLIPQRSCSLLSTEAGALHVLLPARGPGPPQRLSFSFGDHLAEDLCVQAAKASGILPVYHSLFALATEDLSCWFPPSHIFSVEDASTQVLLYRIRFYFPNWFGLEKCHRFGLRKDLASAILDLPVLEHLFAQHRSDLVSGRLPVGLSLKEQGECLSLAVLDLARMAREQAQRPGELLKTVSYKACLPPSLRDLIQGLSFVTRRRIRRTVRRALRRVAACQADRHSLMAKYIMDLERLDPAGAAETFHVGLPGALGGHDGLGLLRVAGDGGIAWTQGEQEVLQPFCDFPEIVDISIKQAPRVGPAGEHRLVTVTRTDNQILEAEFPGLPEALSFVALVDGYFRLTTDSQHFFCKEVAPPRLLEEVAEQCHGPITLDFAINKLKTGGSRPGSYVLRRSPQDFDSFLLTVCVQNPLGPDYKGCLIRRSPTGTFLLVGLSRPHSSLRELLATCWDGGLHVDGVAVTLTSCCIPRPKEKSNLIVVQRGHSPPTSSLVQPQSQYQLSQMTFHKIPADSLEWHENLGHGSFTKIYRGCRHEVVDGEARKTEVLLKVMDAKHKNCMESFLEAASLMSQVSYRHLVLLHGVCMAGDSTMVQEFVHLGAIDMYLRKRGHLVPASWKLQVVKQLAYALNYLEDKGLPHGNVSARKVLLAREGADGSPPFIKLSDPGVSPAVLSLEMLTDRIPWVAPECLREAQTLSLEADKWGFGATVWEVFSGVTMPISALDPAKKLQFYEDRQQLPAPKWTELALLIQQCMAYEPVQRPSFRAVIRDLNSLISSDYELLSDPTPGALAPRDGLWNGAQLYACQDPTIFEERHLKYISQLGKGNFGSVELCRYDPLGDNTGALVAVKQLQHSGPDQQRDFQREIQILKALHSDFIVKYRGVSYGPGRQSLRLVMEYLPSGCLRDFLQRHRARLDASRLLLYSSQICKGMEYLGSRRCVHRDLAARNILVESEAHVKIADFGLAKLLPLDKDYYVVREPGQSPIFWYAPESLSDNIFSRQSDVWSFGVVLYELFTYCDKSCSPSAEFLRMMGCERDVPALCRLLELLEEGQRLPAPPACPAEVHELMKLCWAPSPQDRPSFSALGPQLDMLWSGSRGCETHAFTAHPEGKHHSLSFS

recombinant human NAMPT = target: T2, recombinant human NAMPT (Homo sapiens, UniProt P43490); experiment: NAMPT in vitro enzymatic fluorescence assay
T2 construct: purchased 91004
T2 sequence (P43490 whole entry): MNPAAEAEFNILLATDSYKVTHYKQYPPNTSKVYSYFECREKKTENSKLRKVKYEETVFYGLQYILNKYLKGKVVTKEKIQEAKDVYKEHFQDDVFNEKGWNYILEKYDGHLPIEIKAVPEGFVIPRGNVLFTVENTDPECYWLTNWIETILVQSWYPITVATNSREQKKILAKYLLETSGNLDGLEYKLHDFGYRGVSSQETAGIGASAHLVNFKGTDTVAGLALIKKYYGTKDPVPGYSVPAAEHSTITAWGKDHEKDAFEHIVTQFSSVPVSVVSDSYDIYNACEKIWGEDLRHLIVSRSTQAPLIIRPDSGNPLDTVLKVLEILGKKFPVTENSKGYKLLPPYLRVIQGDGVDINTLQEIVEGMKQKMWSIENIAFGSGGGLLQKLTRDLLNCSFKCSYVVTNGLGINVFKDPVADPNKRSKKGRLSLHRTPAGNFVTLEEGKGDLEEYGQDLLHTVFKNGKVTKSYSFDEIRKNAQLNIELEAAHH
Protocol: Assay Conditions: The control compound is dissolved in DMSO. The dilution of the compounds was first performed in 100% DMSO with the highest concentration at 0.01 mM. […] For NAMPT, the compounds (see 2.2) were preincubated with NAMPT enzyme (see 2.3.1) in for 30 minutes. […] The final concentration of DMSO in all reactions was 1%. Fluorescence intensity was measured at an excitation of 340 nm and an emission of 460 nm using a Tecan Infinite M1000 microplate reader.
Data Analysis: NAMPT activity assays were performed in duplicates at each concentration. […] In the absence of the compound, the fluorescent intensity (Ft) in each data set was defined as 100% activity. In the absence of NAMPT, the fluorescent intensity (Fb) in each data set was defined as 0% activity. The percent activity in the presence of each compound was calculated according to the following equation: % activity=(F−Fb)/(Ft−Fb), where F=the fluorescent intensity in the presence of the compound. The values of percentage activity were plotted on a bar graph.

Chain of recombinant human JAK2 (O60674 whole entry): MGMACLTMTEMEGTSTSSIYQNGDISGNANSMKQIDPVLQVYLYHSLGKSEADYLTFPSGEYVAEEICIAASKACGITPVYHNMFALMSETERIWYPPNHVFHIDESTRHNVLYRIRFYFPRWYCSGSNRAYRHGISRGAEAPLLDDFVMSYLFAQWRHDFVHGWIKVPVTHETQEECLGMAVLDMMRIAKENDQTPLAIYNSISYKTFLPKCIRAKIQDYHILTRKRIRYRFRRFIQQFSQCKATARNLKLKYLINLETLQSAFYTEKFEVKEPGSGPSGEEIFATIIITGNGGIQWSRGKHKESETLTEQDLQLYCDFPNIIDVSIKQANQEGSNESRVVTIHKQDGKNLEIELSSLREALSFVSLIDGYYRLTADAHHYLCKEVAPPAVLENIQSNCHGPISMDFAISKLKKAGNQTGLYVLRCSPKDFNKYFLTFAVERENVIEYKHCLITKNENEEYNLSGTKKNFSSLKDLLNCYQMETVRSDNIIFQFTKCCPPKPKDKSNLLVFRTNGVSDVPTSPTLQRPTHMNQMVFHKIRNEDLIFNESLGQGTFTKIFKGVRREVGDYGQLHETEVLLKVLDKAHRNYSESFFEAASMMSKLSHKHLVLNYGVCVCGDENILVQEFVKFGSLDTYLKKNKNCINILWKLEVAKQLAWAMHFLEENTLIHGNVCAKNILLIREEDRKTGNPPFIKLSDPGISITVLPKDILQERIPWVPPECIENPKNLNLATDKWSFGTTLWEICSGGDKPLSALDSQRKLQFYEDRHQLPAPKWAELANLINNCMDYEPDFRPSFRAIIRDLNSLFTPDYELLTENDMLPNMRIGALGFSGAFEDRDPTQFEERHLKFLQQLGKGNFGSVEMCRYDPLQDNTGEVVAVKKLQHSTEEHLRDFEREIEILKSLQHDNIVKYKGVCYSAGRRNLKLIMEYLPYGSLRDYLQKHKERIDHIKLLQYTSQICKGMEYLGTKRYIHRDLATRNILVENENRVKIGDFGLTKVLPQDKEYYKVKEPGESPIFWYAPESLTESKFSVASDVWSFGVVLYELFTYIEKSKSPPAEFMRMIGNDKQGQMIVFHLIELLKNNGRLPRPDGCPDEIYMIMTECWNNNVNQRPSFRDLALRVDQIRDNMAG

CN[C@@H]1C[C@H]2O[C@@](C)([C@@H]1OC)n1c3ccccc3c3c4c(c5c6ccccc6n2c5c31)C(=O)NC4 [Staurosporine]
Kinase Activity Luminescence Repeat1 (recombinant human JAK2; 0.001 μM, TABLE 69): 19100
Kinase Activity Luminescence Repeat2 (recombinant human JAK2; 0.001 μM, TABLE 69): 20922
inhibition at 0.001 µM (recombinant human JAK2; 0.001 μM, TABLE 69): 0%
activity at 0.001 µM (recombinant human JAK2; 0.001 μM, TABLE 69, read-out: % Activity Repeat1): 105%
activity at 0.001 µM (recombinant human JAK2; 0.001 μM, TABLE 69, read-out: % Activity Repeat2): 96%
Kinase Activity Luminescence Repeat1 (recombinant human JAK2; 1 nM, TABLE 72): 9482
Kinase Activity Luminescence Repeat2 (recombinant human JAK2; 1 nM, TABLE 72): 10430
activity at 0.001 µM (recombinant human JAK2; 1 nM, TABLE 72, read-out: % Activity Repeat1): 89%
activity at 0.001 µM (recombinant human JAK2; 1 nM, TABLE 72, read-out: % Activity Repeat2): 86%
Kinase Activity Luminescence Repeat1 (recombinant human JAK2; 0.01 μM, TABLE 69): 36988
Kinase Activity Luminescence Repeat2 (recombinant human JAK2; 0.01 μM, TABLE 69): 36554
activity at 0.01 µM (recombinant human JAK2; 0.01 μM, TABLE 69, read-out: % Activity Repeat1): 16%
activity at 0.01 µM (recombinant human JAK2; 0.01 μM, TABLE 69, read-out: % Activity Repeat2): 18%
inhibition at 0.01 µM (recombinant human JAK2; 0.01 μM, TABLE 69, read-out: % Inhibition): 83%
Kinase Activity Luminescence Repeat1 (recombinant human JAK2; 10 nM, TABLE 72): 17529
Kinase Activity Luminescence Repeat2 (recombinant human JAK2; 10 nM, TABLE 72): 16180
activity at 0.01 µM (recombinant human JAK2; 10 nM, TABLE 72, read-out: % Activity Repeat1): 65%
activity at 0.01 µM (recombinant human JAK2; 10 nM, TABLE 72, read-out: % Activity Repeat2): 69%
inhibition at 0.01 µM (recombinant human JAK2; 10 nM, TABLE 74 summary, read-out: % Inhibition JAK2): 33%
Kinase Activity Luminescence Repeat1 (recombinant human JAK2; 0.1 μM, TABLE 69): 42700
Kinase Activity Luminescence Repeat2 (recombinant human JAK2; 0.1 μM, TABLE 69): 40639
inhibition at 0.1 µM (recombinant human JAK2; 0.1 μM, TABLE 69): 100%
activity at 0.1 µM (recombinant human JAK2; 0.1 μM, TABLE 69, read-out: % Activity Repeat1): 0%
activity at 0.1 µM (recombinant human JAK2; 0.1 μM, TABLE 69, read-out: % Activity Repeat2): 0%
Kinase Activity Luminescence Repeat1 (recombinant human JAK2; 100 nM, TABLE 72): 34660
Kinase Activity Luminescence Repeat2 (recombinant human JAK2; 100 nM, TABLE 72): 34762
inhibition at 0.001 µM (recombinant human JAK1): 7%
inhibition at 0.01 µM (recombinant human JAK1): 72%
Kinase Activity Luminescence Repeat1 (recombinant human JAK1; 0.001 μM, TABLE 68): 25176
Kinase Activity Luminescence Repeat2 (recombinant human JAK1; 0.001 μM, TABLE 68): 27054
Kinase Activity Luminescence Repeat1 (recombinant human JAK1; 1 nM, TABLE 71): 21164
Kinase Activity Luminescence Repeat2 (recombinant human JAK1; 1 nM, TABLE 71): 24810
Kinase Activity Luminescence Repeat1 (recombinant human JAK1; 0.01 μM, TABLE 68): 37642
Kinase Activity Luminescence Repeat2 (recombinant human JAK1; 0.01 μM, TABLE 68): 35358
Kinase Activity Luminescence Repeat1 (recombinant human JAK1; 10 nM, TABLE 71): 28640
Kinase Activity Luminescence Repeat2 (recombinant human JAK1; 10 nM, TABLE 71): 32000
Kinase Activity Luminescence Repeat1 (recombinant human JAK1; 0.1 μM, TABLE 68): 40161
Kinase Activity Luminescence Repeat2 (recombinant human JAK1; 0.1 μM, TABLE 68): 40781
Kinase Activity Luminescence Repeat1 (recombinant human JAK1; 100 nM, TABLE 71): 36908
Kinase Activity Luminescence Repeat2 (recombinant human JAK1; 100 nM, TABLE 71): 39509
activity at 0.001 µM (recombinant human JAK1; read-out: % Activity Repeat1, 0.001 μM, TABLE 68): 99%
activity at 0.001 µM (recombinant human JAK1; read-out: % Activity Repeat1, 1 nM, TABLE 71): 88%
activity at 0.01 µM (recombinant human JAK1; read-out: % Activity Repeat1, 10 nM, TABLE 71): 52%
activity at 0.1 µM (recombinant human JAK1; read-out: % Activity Repeat1, 0.1 μM, TABLE 68): 5%
activity at 0.1 µM (recombinant human JAK1; read-out: % Activity Repeat1, 100 nM, TABLE 71): 11%
activity at 0.001 µM (recombinant human JAK1; read-out: % Activity Repeat2, 0.001 μM, TABLE 68): 87%
activity at 0.001 µM (recombinant human JAK1; read-out: % Activity Repeat2, 1 nM, TABLE 71): 70%
activity at 0.1 µM (recombinant human JAK1; read-out: % Activity Repeat2, 0.1 μM, TABLE 68): 1%
activity at 0.1 µM (recombinant human JAK1; read-out: % Activity Repeat2, 100 nM, TABLE 71): 0%
inhibition at 0.01 µM (recombinant human JAK1; read-out: % Inhibition JAK1): 56%
inhibition at 0.1 µM (recombinant human JAK1; read-out: % Inhibition JAK1): 94%
inhibition at 0.001 µM (recombinant human JAK3): 19%
inhibition at 0.01 µM (recombinant human JAK3): 65%
inhibition at 0.1 µM (recombinant human JAK3): 100%
Kinase Activity Luminescence Repeat1 (recombinant human JAK3; 0.001 μM, TABLE 70): 23814
Kinase Activity Luminescence Repeat2 (recombinant human JAK3; 0.001 μM, TABLE 70): 23348
Kinase Activity Luminescence Repeat1 (recombinant human JAK3; 1 nM, TABLE 73): 21050
Kinase Activity Luminescence Repeat2 (recombinant human JAK3; 1 nM, TABLE 73): 24827
Kinase Activity Luminescence Repeat1 (recombinant human JAK3; 0.01 μM, TABLE 70): 32137
Kinase Activity Luminescence Repeat2 (recombinant human JAK3; 0.01 μM, TABLE 70): 32417
Kinase Activity Luminescence Repeat1 (recombinant human JAK3; 10 nM, TABLE 73): 32876
Kinase Activity Luminescence Repeat2 (recombinant human JAK3; 10 nM, TABLE 73): 34538
Kinase Activity Luminescence Repeat1 (recombinant human JAK3; 0.1 μM, TABLE 70): 39970
Kinase Activity Luminescence Repeat2 (recombinant human JAK3; 0.1 μM, TABLE 70): 40121
Kinase Activity Luminescence Repeat1 (recombinant human JAK3; 100 nM, TABLE 73): 37496
Kinase Activity Luminescence Repeat2 (recombinant human JAK3; 100 nM, TABLE 73): 39233
activity at 0.001 µM (recombinant human JAK3; read-out: % Activity Repeat1, 0.001 μM, TABLE 70): 80%
activity at 0.001 µM (recombinant human JAK3; read-out: % Activity Repeat1, 1 nM, TABLE 73): 84%
activity at 0.01 µM (recombinant human JAK3; read-out: % Activity Repeat1, 10 nM, TABLE 73): 27%
activity at 0.1 µM (recombinant human JAK3; read-out: % Activity Repeat1, 0.1 μM, TABLE 70): 0%
activity at 0.1 µM (recombinant human JAK3; read-out: % Activity Repeat1, 100 nM, TABLE 73): 5%
activity at 0.001 µM (recombinant human JAK3; read-out: % Activity Repeat2, 0.001 μM, TABLE 70): 82%
activity at 0.001 µM (recombinant human JAK3; read-out: % Activity Repeat2, 1 nM, TABLE 73): 66%
activity at 0.01 µM (recombinant human JAK3; read-out: % Activity Repeat2, 0.01 μM, TABLE 70): 35%
activity at 0.01 µM (recombinant human JAK3; read-out: % Activity Repeat2, 10 nM, TABLE 73): 20%
activity at 0.1 µM (recombinant human JAK3; read-out: % Activity Repeat2, 0.1 μM, TABLE 70): 0%
activity at 0.1 µM (recombinant human JAK3; read-out: % Activity Repeat2, 100 nM, TABLE 73): 0%
inhibition at 0.001 µM (recombinant human JAK3; read-out: % Inhibition JAK3): 25%
inhibition at 0.01 µM (recombinant human JAK3; read-out: % Inhibition JAK3): 77%
inhibition at 0.1 µM (recombinant human JAK3; read-out: % Inhibition JAK3): 97%

O=C(/C=C/c1cccnc1)NCCCCC1CCN(C(=O)c2ccccc2)CC1 [FK-866]
inhibition at 0.001 µM (recombinant human NAMPT): 4%
inhibition at 0.01 µM (recombinant human NAMPT): 57%
inhibition at 0.1 µM (recombinant human NAMPT): 100%
Background (Fluorescence count) Repeat 1 (recombinant human NAMPT; 0.001 μM): 450
Background (Fluorescence count) Repeat 2 (recombinant human NAMPT; 0.001 μM): 442
NAMPT Activity (Fluorescence Intensity) Repeat 1 (recombinant human NAMPT; 0.001 μM): 3328
NAMPT Activity (Fluorescence Intensity) Repeat 2 (recombinant human NAMPT; 0.001 μM): 3345
Background (Fluorescence count) Repeat 1 (recombinant human NAMPT; 0.01 μM): 454
Background (Fluorescence count) Repeat 2 (recombinant human NAMPT; 0.01 μM): 461
NAMPT Activity (Fluorescence Intensity) Repeat 1 (recombinant human NAMPT; 0.01 μM): 1750
NAMPT Activity (Fluorescence Intensity) Repeat 2 (recombinant human NAMPT; 0.01 μM): 1766
Background (Fluorescence count) Repeat 1 (recombinant human NAMPT; 0.1 μM): 440
Background (Fluorescence count) Repeat 2 (recombinant human NAMPT; 0.1 μM): 442
NAMPT Activity (Fluorescence Intensity) Repeat 1 (recombinant human NAMPT; 0.1 μM): 463
NAMPT Activity (Fluorescence Intensity) Repeat 2 (recombinant human NAMPT; 0.1 μM): 468
activity at 0.001 µM (recombinant human NAMPT; read-out: % Activity Repeat 1): 95%
activity at 0.01 µM (recombinant human NAMPT; read-out: % Activity Repeat 1): 42%
activity at 0.1 µM (recombinant human NAMPT; read-out: % Activity Repeat 1): 0%
activity at 0.001 µM (recombinant human NAMPT; read-out: % Activity Repeat 2): 96%
activity at 0.01 µM (recombinant human NAMPT; read-out: % Activity Repeat 2): 43%
activity at 0.1 µM (recombinant human NAMPT; read-out: % Activity Repeat 2): 0%
